Laboratory results: US8343477B2, “Inhibitors of hepatitis C virus” (Bristol-Myers Squibb Company, priority 2006, dated 2013)

What was measured:
[1] = system: human pancreatic chymotrypsin; test: Specificity assay, chymotrypsin (pNA substrate); type: biochemical; settings: read-out: Chymotrypsin activity in the specificity assays (IC50)
Procedure: The specificities of compounds of the present disclosure were determined against a variety of serine proteases: human neutrophil elastase (HNE), porcine pancreatic elastase (PPE) and human pancreatic chymotrypsin and one cysteine protease: human liver cathepsin B. In all cases, a 96-well plate format protocol using colorimetric p-nitroaniline (pNA) substrate or fluorometric Amino-Methyl-Coumarin (AMC) substrate, specific for each enzyme was used as described previously (PCT Patent Application No. WO 00/09543) with some modifications. All enzymes were purchased from Sigma or EMDbiosciences while the substrates were from Bachem.
Each pNA assay included a 2 h enzyme-inhibitor pre-incubation at room temperature followed by addition of substrate and hydrolysis to ˜15% conversion as measured on a Spectramax Pro microplate reader. The cathepsin B assay was initiated by adding substrate to a 10 min enzyme-inhibitor pre-incubation at room temperature, and the assay plate measured immediately using the Cytofluor Series 4000. Compound concentrations varied from 100 to 0.4 μM depending on their potency.
50 mM Tris(hydroxymethyl)aminomethane hydrochloride (Tris-HCl) pH 8, 0.5 M Sodium Sulfate (Na2SO4), 50 mM NaCl, 0.1 mM EDTA, 3% DMSO, 0.01% Tween-20 with: […]
The percentage of inhibition was calculated using the formula: [1−((UVinh−UVblank)/(UVctl−UVblank))]×100 […]

[2] = target: HCV NS3/4A protease complex, BMS strain (Hepatitis C virus genotype 1a, UniProt P27958); test: FRET peptide assay to monitor HCV NS3/4A proteolytic activity, BMS strain; type: biochemical, HCV genotype 1a; settings: read-out: IC50 against the NS3/4A BMS strain in the enzyme assay
Excerpt: (§1) HCV NS3 protease complexes, derived from the BMS strain, H77 strain or J4L6S strain, were generated, as described below. These purified recombinant proteins were generated for use in a homogeneous assay (see below) to provide an indication of how effective compounds of the present disclosure would be in inhibiting HCV NS3 proteolytic activity.
Serum from an HCV-infected patient was obtained from Dr. T. Wright, San Francisco Hospital. […]
In order to monitor HCV NS3/4A protease activity, an NS3/4A peptide substrate was used. […] The peptide also contains a fluorescence donor, EDANS, near one end of the peptide and an acceptor, DABCYL, near the other end. The fluorescence of the peptide is quenched by […] resonance energy transfer (RET) between the donor and the acceptor, but as the NS3 protease cleaves the peptide the products are released from RET quenching and the fluorescence of the donor becomes apparent.
The peptide substrate was incubated with one of the three recombinant NS3/4A protease complexes, in the absence or presence of a compound of the present disclosure. The inhibitory effects of a compound was determined by monitoring the formation of fluorescent reaction product in real time using a Cytofluor Series 4000. […]

[3] = target: T1, HCV NS3/4A protease complex, J4L6S strain (Hepatitis C virus genotype 1b, UniProt O92972, C1454S/C1711G); test: FRET peptide assay to monitor HCV NS3/4A proteolytic activity, J4L6S strain; type: biochemical, HCV genotype 1b; settings: J4L6S strain (1b genotype)
T1 construct: DNA encoding the recombinant HCV NS3/4A protease complex (amino acids 1027 to 1711) for these strains; inferred from pET21b vector and Ni-NTA purification; made in house; host or cells: Escherichia coli BL21 (DE3), pET21b
Excerpt: as §1
(§2) Serum from an HCV-infected patient was obtained from Dr. T. Wright, San Francisco Hospital. An engineered full-length cDNA (compliment deoxyribonucleic acid) template of the HCV genome (BMS strain) was constructed from DNA fragments obtained by reverse transcription-PCR(RT-PCR) of serum RNA (ribonucleic acid) and using primers selected on the basis of homology between other genotype 1a strains. From the determination of the entire genome sequence, a genotype 1a was assigned to the HCV isolate according to the classification of Simmonds et al. (See P Simmonds, K A Rose, S Graham, S W Chan, F McOmish, B C Dow, E A Follett, P L Yap and H Marsden, J. Clin. Microbiol., 31(6), 1493-1503 (1993)). […]

[4] = target: T2, HCV NS3/4A protease complex, H77 strain (Hepatitis C virus genotype 1a, UniProt P27958, C1454S/C1711G); test: FRET peptide assay to monitor HCV NS3/4A proteolytic activity, H77 strain; type: biochemical, HCV genotype 1a; settings: H77 strain (1a genotype)
T2 construct: DNA encoding the recombinant HCV NS3/4A protease complex (amino acids 1027 to 1711) for these strains; inferred from pET21b vector and Ni-NTA purification; made in house; host or cells: Escherichia coli BL21 (DE3), pET21b
Excerpt: as §1, §2

Chain of HCV NS3/4A protease complex, BMS strain (P27958 1027-1711, one chain of several): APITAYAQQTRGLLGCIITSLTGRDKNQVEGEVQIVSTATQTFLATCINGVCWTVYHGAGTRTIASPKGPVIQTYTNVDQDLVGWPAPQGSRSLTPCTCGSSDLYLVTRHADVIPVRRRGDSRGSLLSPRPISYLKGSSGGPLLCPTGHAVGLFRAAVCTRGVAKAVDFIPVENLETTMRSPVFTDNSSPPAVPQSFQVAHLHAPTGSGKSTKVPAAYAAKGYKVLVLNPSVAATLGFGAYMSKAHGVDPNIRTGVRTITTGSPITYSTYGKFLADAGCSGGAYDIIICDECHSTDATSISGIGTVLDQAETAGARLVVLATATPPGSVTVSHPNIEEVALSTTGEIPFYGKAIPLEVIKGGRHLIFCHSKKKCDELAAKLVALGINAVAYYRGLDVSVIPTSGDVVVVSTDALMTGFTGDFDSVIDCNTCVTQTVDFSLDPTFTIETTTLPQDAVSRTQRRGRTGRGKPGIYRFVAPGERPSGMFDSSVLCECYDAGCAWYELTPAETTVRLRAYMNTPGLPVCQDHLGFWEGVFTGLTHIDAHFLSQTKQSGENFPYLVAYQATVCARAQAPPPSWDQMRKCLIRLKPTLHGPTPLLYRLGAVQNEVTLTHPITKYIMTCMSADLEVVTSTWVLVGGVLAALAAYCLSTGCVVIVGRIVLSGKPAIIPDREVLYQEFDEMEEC
T2 sequence (P27958 1027-1711 C1454S/C1711G, one chain of several): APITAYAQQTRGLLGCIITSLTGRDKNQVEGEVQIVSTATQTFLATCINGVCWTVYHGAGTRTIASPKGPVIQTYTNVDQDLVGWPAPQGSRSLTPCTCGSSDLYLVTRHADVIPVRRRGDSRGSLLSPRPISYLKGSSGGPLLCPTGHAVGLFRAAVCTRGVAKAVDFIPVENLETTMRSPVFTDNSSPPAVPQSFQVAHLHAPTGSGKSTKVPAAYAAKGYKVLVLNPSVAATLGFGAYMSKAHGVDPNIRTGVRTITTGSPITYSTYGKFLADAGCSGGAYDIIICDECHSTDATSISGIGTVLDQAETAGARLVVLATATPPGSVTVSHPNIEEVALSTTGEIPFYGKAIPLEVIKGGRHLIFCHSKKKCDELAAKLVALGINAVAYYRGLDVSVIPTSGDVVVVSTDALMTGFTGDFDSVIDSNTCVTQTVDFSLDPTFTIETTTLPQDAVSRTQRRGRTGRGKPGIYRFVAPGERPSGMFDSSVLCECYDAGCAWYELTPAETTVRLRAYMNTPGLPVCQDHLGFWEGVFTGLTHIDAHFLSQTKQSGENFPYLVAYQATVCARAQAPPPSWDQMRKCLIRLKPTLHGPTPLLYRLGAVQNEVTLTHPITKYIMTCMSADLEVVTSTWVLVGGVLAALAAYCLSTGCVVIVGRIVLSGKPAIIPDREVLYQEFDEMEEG
T1 sequence (O92972 1027-1711 C1454S/C1711G, one chain of several): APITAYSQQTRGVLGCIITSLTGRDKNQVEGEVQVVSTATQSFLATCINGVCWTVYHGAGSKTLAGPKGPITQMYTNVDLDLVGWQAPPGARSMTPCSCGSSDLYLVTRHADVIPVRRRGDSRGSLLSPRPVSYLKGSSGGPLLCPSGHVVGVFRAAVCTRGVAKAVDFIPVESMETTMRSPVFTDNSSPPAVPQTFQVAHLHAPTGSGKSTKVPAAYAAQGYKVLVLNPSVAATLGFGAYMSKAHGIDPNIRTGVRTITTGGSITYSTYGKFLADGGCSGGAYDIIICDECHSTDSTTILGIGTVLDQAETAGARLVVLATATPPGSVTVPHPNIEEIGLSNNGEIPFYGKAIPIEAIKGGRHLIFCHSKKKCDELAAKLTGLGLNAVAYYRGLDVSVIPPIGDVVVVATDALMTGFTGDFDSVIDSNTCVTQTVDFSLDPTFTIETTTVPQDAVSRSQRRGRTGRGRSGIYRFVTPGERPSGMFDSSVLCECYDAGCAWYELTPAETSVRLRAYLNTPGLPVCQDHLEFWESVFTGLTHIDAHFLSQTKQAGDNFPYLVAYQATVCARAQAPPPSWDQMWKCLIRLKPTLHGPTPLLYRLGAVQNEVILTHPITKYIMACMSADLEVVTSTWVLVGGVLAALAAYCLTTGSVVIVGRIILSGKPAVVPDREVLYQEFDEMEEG

SMILES | IC50 [1] | IC50 [2] | IC50 [3] | IC50 [4] | melting point
CC(C)(C)OC(=O)N[C@H]1CN(C2CC2)CCC/C=C\C2C[C@@]2(C(=O)NS(=O)(=O)C2CC2)NC(=O)[C@@H]2C[C@@H](Oc3ccccn3)CN2C1=O (some centres unmarked) [Compound 1] | > 100 µM | 98 nM | 12 nM | 18 nM | 
CC(C)(C)OC(=O)N[C@H]1CCCOC/C=C\[C@@H]2C[C@@]2(C(=O)NS(=O)(=O)C2CC2)NC(=O)[C@@H]2C[C@@H](OCc3ccccc3)CN2C1=O [Compound 5, (1S,4R,6S,14S,18R, 7-cis)-18-benzyloxy-14-tert-butoxycarbonylamino-4-cyclopropanesulfonylaminocarbonyl-2,15-dioxo-3,16-diaza-10-oxatricyclo[14.3.0.04,6]nonadec-7-ene] |  |  |  |  | 147 to 149 °C
